Measured values as given in US20110039890A1, “4-[2,3-Difluoro-6-(2-fluoro-4-methyl-phenylsulfanyl)-phenyl]-piperidine” (H. LUNDBECK A/S, priority 2007, published 2011).

Key:
[1] = target: T1, [3H]-serotonin reuptake (SERT) (Rattus norvegicus, UniProt P31652); assay: inhibition of [3H]-serotonin reuptake in rat synaptosomes; assay type: biochemical
T1 construct: from tissue
Text: (§1) IC50 (nM) values Compound I inhibition of the reuptake in rat synaptosomes:
(§2) [^3H]-serotonin: 2.4 [^3H]-noradrenaline: 12

5-HT2C receptor [2] = target: T2, 5-HT2C receptor (Homo sapiens, UniProt P28335); assay: affinity to human serotonin receptor 5-HT2C; assay type: binding; conditions: calculated from the Cheng-Prusoff equation
T2 sequence (P28335 33-458): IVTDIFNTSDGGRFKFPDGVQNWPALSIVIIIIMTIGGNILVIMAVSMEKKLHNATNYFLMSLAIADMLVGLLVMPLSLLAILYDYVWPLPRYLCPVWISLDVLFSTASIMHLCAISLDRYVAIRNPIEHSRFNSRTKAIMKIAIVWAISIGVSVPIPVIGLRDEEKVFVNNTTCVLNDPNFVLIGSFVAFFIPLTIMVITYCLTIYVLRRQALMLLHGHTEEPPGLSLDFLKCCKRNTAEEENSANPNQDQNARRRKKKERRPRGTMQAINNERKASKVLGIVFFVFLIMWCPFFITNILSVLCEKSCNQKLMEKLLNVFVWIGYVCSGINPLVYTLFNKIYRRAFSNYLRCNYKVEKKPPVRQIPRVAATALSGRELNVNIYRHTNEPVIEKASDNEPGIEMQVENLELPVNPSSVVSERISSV
Text: (§3) Affinity (Ki, nM) for compound I to human serotonin receptors calculated from the Cheng-Prusoff equation

5-HT2A receptor [3] = target: T3, 5-HT2A receptor (Homo sapiens, UniProt P28223); assay: functional FLIPR assay, 5-HT2A antagonism; assay type: cell-based; conditions: read-out: Kb, antagonist of the 5-HT2A receptor
[4] = system: mice, formalin-injected hind paw; assay: formalin model of neuropathic pain; assay type: in vivo; conditions: for time spent licking the injured paw, 0-5 minutes: first phase, vehicle 51; for time spent licking the injured paw, 20-30 minutes: second phase, vehicle 66
Procedure: There are several well validated animal models of neuropathic pain available for assess of antinociceptive potential of drugs. Among the most frequently used model are chronic constriction injury models (for example Bennett and Xie, Pain, 1988) and the capsaicin (Gilchrist et al., Pain 1996) and formalin [Neuropharm., 48, 252-263, 2005; Pain, 51, 5-17, 1992] models. […] In this model, mice receive an injection of formalin (4.5%, 20 μl) into the plantar surface of the left hind paw and are afterwards placed into individual glass beakers (2 l capacity) for observation. The irritation caused by the formalin injection elicits a characteristic biphasic behavioural response, as quantified by the amount of time spent licking the injured paw. The first phase (˜0-10 minutes) represents direct chemical irritation and nociception, whereas the second (˜20-30 minutes) is thought to represent pain of neuropathic origin. The two phases are separated by a quiescent period in which behaviour returns to normal. Measuring the amount of time spent licking the injured paw in the two phases assesses the effectiveness of test compounds to reduce the neuropathic-like pain response.

[5] = target: T4, [3H]-noradrenaline reuptake (NAT) (Rattus norvegicus, UniProt Q63380); assay: inhibition of [3H]-noradrenaline reuptake in rat synaptosomes; assay type: biochemical
T4 construct: from tissue
Text: as §1, §2

5-HT2C receptor [6] = target: T2, 5-HT2C receptor; assay: functional assay, 5-HT2C antagonism; assay type: cell-based; conditions: read-out: Kb, antagonist of the 5-HT2C receptor
5-HT2A receptor [7] = target: T3, 5-HT2A receptor; assay: affinity to human serotonin receptor 5-HT2A; assay type: binding; conditions: calculated from the Cheng-Prusoff equation
Text: as §3

T3 sequence (P28223 whole entry): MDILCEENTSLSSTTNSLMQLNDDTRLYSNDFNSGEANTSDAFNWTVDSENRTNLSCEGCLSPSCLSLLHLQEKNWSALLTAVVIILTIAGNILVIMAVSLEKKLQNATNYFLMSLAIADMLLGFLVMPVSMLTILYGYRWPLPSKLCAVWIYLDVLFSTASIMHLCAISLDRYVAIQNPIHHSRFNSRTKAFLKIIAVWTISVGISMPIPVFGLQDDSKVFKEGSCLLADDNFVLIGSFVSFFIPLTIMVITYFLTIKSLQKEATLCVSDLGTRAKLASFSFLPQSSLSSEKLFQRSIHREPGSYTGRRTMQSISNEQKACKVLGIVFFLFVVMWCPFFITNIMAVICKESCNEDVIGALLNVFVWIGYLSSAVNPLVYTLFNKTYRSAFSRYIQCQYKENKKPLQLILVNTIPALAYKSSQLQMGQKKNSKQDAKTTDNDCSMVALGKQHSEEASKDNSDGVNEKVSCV
T4 sequence (Q63380 1-617): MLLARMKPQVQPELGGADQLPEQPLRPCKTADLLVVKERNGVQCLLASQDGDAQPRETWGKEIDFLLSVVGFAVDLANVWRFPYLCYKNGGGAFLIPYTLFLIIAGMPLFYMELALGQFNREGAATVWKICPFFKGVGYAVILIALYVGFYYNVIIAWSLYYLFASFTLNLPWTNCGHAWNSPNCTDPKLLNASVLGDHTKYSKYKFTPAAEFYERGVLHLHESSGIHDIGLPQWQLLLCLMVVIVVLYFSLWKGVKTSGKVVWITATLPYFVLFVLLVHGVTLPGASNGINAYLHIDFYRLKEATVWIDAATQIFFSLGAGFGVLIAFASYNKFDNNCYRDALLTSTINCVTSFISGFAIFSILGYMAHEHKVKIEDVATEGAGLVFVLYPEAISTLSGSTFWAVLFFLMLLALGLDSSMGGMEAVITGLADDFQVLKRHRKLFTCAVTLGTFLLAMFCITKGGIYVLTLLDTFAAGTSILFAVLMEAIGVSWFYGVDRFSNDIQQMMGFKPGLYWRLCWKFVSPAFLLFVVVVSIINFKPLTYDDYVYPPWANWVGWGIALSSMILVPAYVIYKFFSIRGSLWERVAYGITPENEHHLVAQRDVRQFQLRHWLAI
T1 sequence (P31652 whole entry): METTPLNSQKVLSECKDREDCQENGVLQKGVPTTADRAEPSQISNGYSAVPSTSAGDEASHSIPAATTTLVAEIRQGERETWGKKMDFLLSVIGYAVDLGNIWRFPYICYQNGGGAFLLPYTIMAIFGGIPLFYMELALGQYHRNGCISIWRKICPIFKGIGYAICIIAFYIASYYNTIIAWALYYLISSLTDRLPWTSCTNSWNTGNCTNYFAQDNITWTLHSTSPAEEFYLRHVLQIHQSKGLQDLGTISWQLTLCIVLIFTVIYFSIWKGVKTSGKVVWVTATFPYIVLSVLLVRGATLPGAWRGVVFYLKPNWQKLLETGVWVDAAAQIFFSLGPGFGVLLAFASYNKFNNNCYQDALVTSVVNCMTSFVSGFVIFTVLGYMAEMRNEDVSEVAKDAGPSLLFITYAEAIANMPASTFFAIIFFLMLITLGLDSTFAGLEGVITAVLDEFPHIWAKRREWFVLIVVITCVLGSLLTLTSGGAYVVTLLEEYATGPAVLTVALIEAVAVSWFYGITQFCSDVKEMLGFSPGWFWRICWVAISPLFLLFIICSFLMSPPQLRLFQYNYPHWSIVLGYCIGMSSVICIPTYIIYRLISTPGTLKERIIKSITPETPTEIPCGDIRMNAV

Cc1ccc(Sc2ccc(F)c(F)c2C2CCNCC2)c(F)c1 [compound I, 4-[2,3-difluoro-6-(2-fluoro-4-methyl-phenylsulfanyl)-phenyl]-piperidine]
IC50 [1]: 2.4 nM | Ki (5-HT2C receptor [2]): 4.9 nM | Kb (5-HT2A receptor [3]): ~130 nM | time spent licking the injured paw, 0-5 minutes ([4]; 0.25 mg/kg s.c): 40 s | time spent licking the injured paw, 20-30 minutes ([4]; 0.25 mg/kg s.c): 48 s | time spent licking the injured paw, 0-5 minutes ([4]; 1 mg/kg s.c): 40 s | time spent licking the injured paw, 20-30 minutes ([4]; 1 mg/kg s.c): 21 s | time spent licking the injured paw, 0-5 minutes ([4]; 2.5 mg/kg s.c): 31 s | time spent licking the injured paw, 20-30 minutes ([4]; 2.5 mg/kg s.c): 7 s | effect in the first phase (direct chemical irritation and nociception) ([4]; 0.25-2.5 mg/kg s.c, in words): little effect | effect on time spent licking the injured paw in the second phase (neuropathic pain) ([4]; 0.25-2.5 mg/kg s.c, in words): clear and dose-dependent decrease | IC50 [5]: 12 nM | Kb (5-HT2C receptor [6]): ~35 nM | Ki (5-HT2A receptor [7]): 13 nM
